The text below walks through data of PMC5913971, “A Novel Piperazine-Based Drug Lead for Cryptosporidiosis from the Medicines for Malaria Venture Open-Access Malaria Box” (Antimicrobial Agents and Chemotherapy, 2018).

Molecules are shown by their SMILES. Values after ≈ are worked out from the molar mass of the structure shown.

One data set has as its system C. parvum Iowa isolate. The data set is described as follows: Immunofluorescence assay for C. parvum growth inhibition in HCT-8 cells. The class given is cell-based, Cryptosporidium parvum. The note with it: Cryptosporidium parvum, inside HCT-8 cells, 48 h incubation. Here is the method:
Inhibition of C. parvum growth was measured as described previously ([20]). Oocysts were excysted by treatment with 10 mM hydrochloric acid (10 min at 37°C), followed by exposure to 2 mM sodium taurocholate (Sigma-Aldrich) in PBS for 10 min at 16°C. Excysted oocysts were then added to >95% confluent HCT-8 cell monolayers in 384-well plates at a concentration of 5,500 Iowa isolate oocysts per well. For C. parvum field isolates, the inoculum required to yield an infection level similar to that produced by 5,500 Iowa isolate oocysts per well was determined and was used for subsequent assays of parasite inhibition. Compounds were added just before or 3 h after infection, and assay plates were incubated for 48 h postinfection at 37°C under 5% CO2. Wells were then washed three times with PBS containing 111 mM D-galactose, fixed with 4% paraformaldehyde in PBS for 15 min at room temperature, permeabilized with 0.25% Triton X-100 for 10 min at 37°C, washed three times with PBS with 0.1% Tween 20, and blocked with 4% bovine serum albumin (BSA) in PBS for 2 h at 37°C or 4°C overnight. Parasitophorous vacuoles were stained with 1.33 μg/ml of fluorescein-labeled Vicia villosa lectin (Vector Laboratories) diluted in 1% BSA in PBS with 0.1% Tween 20 for 1 h at 37°C, followed by the addition of Hoechst 33258 (AnaSpec) at a final concentration of 0.09 mM diluted in water for another 15 min at 37°C. Wells were then washed five times with PBS containing 0.1% Tween 20. A Nikon Eclipse TE2000 epifluorescence microscope with an automated stage was programmed using NIS-Elements Advanced Research software (Nikon, USA) to focus on the center of each well and take a 3-by-3 composite image using an EXi Blue fluorescence microscopy camera (QImaging, Canada) with a 20× objective (numerical aperture, 0.45). Nucleus and parasite images were exported separately as .tif files and were analyzed using macros developed on the ImageJ platform (National Institutes of Health) ([20]). The only modification from the published macro used to count parasites was that the lower size threshold for parasites was decreased from 16.5 to 4 pixels (1 pixel = 0.65 μm). Graphs were plotted, and half-maximal effective concentration (EC50) and 90% effective concentration (EC90) values were calculated using GraphPad Prism software, version 6.01. For every C. parvum field isolate experiment, a dose-response experiment against the C. parvum Iowa isolate was performed simultaneously as a reference.

On the set-up of data set [1]: method as in PMID 27467575. The following applies: human; cited from earlier work.
The subject of data set [2] is cytochrome P450 (CYP) isoforms (1A2, 2C9, 2C19, 2D6, 3A4-M, and 3A4-T). Also on record: method as in PMID 27467575. The following applies: at 10 μM; cited from earlier work.
Details of data set [3]: method as in PMID 27467575. The following applies: pH 7.4; cited from earlier work.
Another data set deals with hERG. Also on record: method as in PMID 27467575. The following applies: at 11 μM; cited from earlier work.
The test system of the next data set is zebrafish. Also on record: method as in PMID 27467575. The note with it: cited from earlier work.
The subject of data set [4] is 11 species of bacteria, 12 protozoa, and 7 helminths. Also on record: method as in PMID 27467575. The following applies: cited from earlier work.

For the molecule `O=C(Nc1ccc(Cl)cc1)N1CCN(c2ccc3nncn3n2)CC1` [MMV665917, Clc1ccc(NC(=O)N2CCN(CC2)c3ccc4nncn4n3)cc1], the EC50 in the data set on C. parvum Iowa isolate (Fig. 1, read-out: EC50, anti-C. parvum dose response) came out at 2.1 µM. For the same molecule, the EC90 with C. parvum Iowa isolate (Fig. 1B, read-out: EC90, anti-C. parvum dose response) came to 5.1 µM. Besides, in data set [1], the plasma protein binding is on record as 88.8%. For the same molecule, the “inhibition of six CYP isoforms” value in data set [2] is recorded as “low inhibition”. For the same molecule, the kinetic solubility in data set [3] is 18 µM (≈ 6.44 µg/mL). Also, the hERG inhibition in the data set on hERG was 58%. For the same molecule, in the data set on zebrafish, the toxicity to zebrafish entry was “not toxic”. The “activity in numerous biological assays (bacteria, protozoa, helminths)” value in data set [4] was “inactive”.

Usually EC50 stands for the midpoint of the concentration-response curve. For orientation: EC90 means the point of the concentration-response curve where the effect stands at 90%.
